Results on 39 compounds are retold here after US20100210654A1, “NOVEL P2Y12 RECEPTOR ANTAGONISTS” (RHEINISCHE FRIEDRICH-WILHELMS UNIVERSITÄT BONN, priority 2007, published 2010).

As usually defined, the melting point is the temperature of the solid-liquid transition. What is called Ki is the equilibrium dissociation constant of an inhibitor or competing ligand from its target.

Read-outs that look alike come from different tables or passages of the source.

In data set [1] the target is T1, human platelet P2Y12 receptors (Homo sapiens, UniProt Q9H244).
T1 construct: Membranes were prepared from human outdated platelets from the blood bank; from tissue; host or cells: human platelets (University of Bonn blood bank), membrane preparation
T1 sequence (Q9H244 whole entry): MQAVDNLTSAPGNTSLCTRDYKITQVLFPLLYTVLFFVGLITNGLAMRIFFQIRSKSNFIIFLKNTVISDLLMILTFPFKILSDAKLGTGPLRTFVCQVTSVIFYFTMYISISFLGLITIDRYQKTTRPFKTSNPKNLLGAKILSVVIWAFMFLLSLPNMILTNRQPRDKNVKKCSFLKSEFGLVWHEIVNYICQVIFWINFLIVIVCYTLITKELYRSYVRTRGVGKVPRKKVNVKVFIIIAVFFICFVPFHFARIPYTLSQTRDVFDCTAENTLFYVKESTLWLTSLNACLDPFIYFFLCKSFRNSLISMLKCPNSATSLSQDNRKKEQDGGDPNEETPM
As to the kind of experiment: Radioligand binding assay with [3H]PSB-0413 at human platelet membranes. On the procedure: Membranes were prepared from human outdated platelets from the blood bank. Outdated human platelets were obtained from the University of Bonn blood bank 4-5 days after donation. Platelet rich plasma was washed by centrifugation (10 min at 1000 g) in a buffer consisting of 50 mM Tris-HCl, pH 7.4, 5 mM EDTA and 150 mM NaCl. The supernatant was centrifuged twice (48400 g for 60 min) and the resultant platelet pellet were resuspended in 5 mM Tris-HCl (pH 7.4) containing 5 mM EDTA. The platelets were homogenized by a homogenizer. The final suspension was stored frozen as multiple aliquots at −80° C. until needed. Protein concentrations were determined by the method of Lowry using a Sigma Chemie protein assay kit.
Radioligand binding assays were performed using 5 nM [^3H]PSB-0413 and 100 μg of protein in Tris-HCl buffer 50 mM, pH 7.4, as previously described. (El-Tayeb, A., Griessmeier, K. J, Müller, C. E. Bioorg. Med. Chem. Lett. 2005, 15, 5450-52; Atzler, K. Doctoral Thesis, University of Bonn, 2006). Competition by 10 μM of test compound was initially determined. The mixture was incubated for 1 h at rt followed by filtration through GF/B filters. Nonspecific binding was determined with 1 mM ADP or 250 μM RB 2. […] At least three independent experiments were performed each in triplicate.
The data were analyzed using GraphPad Prism 4.0 (GraphPad Software, Inc., San Diego, Calif.).

Setting [2] is: human platelet membranes, 5 nM [3H]PSB-0413, 1 h at rt, mean ± SEM, read-out: hP2Y12 Receptor Ki [μM ± SEM] vs. [3H]PSB-0413.

For the compound `Nc1c(S(=O)(=O)[O-])cc(Nc2ccccc2O)c2c1C(=O)c1ccccc1C2=O.[Na+]`, the melting point was greater than 300 °C.
For `Nc1c(S(=O)(=O)[O-])cc(Nc2ccc(O)cc2)c2c1C(=O)c1ccccc1C2=O.[Na+]`, the melting point is greater than 300 °C.
The same measure, in the same setting: to `Nc1ccc(Nc2cc(S(=O)(=O)[O-])c(N)c3c2C(=O)c2ccccc2C3=O)cc1.[Na+]` belongs greater than 300 °C; to `Nc1cc(Nc2cc(S(=O)(=O)[O-])c(N)c3c2C(=O)c2ccccc2C3=O)cc(C(=O)O)c1.[Na+]`, greater than 300 °C.
For the compound `Nc1c(S(=O)(=O)[O-])cc(Nc2ccc(S(=O)(=O)[O-])cc2)c2c1C(=O)c1ccccc1C2=O.[Na+].[Na+]`, the melting point was greater than 300 °C.
`Nc1cccc(Nc2cc(S(=O)(=O)[O-])c(N)c3c2C(=O)c2ccccc2C3=O)c1.[Na+]`: the melting point was greater than 300 °C.
Same read-out and setting: as for `Nc1c(S(=O)(=O)[O-])cc(Nc2cc(Cl)ccc2C(=O)O)c2c1C(=O)c1ccccc1C2=O.[Na+]`, the figure is greater than 300 °C.
Still for that read-out and setting: as for `Nc1c(S(=O)(=O)[O-])cc(Nc2ccccc2C(=O)O)c2c1C(=O)c1ccccc1C2=O.[Na+]`, the figure is greater than 300 °C.
Regarding `Nc1c(S(=O)(=O)O)cc(Nc2ccc(S(=O)(=O)O)cc2)c2c1C(=O)c1ccccc1C2=O` [Entry 2], the Ki in data set [1] (setting [2]) turned out to be 3.13 ± 0.39 µM.
The same measure, in the same setting: to `Nc1cc(Nc2cc(S(=O)(=O)O)c(N)c3c2C(=O)c2ccccc2C3=O)ccc1S(=O)(=O)O` [Entry 4] belongs 2.1 ± 0.47 µM; to `Nc1cc(Nc2cc(S(=O)(=O)O)c(N)c3c2C(=O)c2ccccc2C3=O)cc(C(=O)O)c1` [Entry 6], 7.07 ± 1.7 µM.
Same read-out and setting: as for `Nc1c(S(=O)(=O)O)cc(Nc2cc(Cl)ccc2C(=O)O)c2c1C(=O)c1ccccc1C2=O` [Entry 7], the figure is 12.2 ± 0.3 µM.
On to `Nc1c(S(=O)(=O)O)cc(Nc2ccccc2C(=O)O)c2c1C(=O)c1ccccc1C2=O` [Entry 8], for which the Ki in data set [1] (setting [2]) is 25.1 ± 7 µM.
Take `Nc1ccc(Nc2cc(S(=O)(=O)O)c(N)c3c2C(=O)c2ccccc2C3=O)c(S(=O)(=O)O)c1` [Entry 9]: the Ki in data set [1] (setting [2]) was 19.7 ± 8.27 µM.
Still for that read-out and setting: as for `Nc1c(S(=O)(=O)O)cc(Nc2ccc(Cl)cc2C(=O)O)c2c1C(=O)c1ccccc1C2=O` [Entry 10], the figure is 12.3 ± 1.7 µM.
For the compound `Nc1c(S(=O)(=O)O)cc(Nc2ccccc2O)c2c1C(=O)c1ccccc1C2=O` [Entry 11], the inhibition constant Ki in data set [1] (setting [2]) is roughly 10 µM.
Still for that read-out and setting: to `Nc1c(S(=O)(=O)O)cc(Nc2ccc(O)cc2)c2c1C(=O)c1ccccc1C2=O` [Entry 12] belongs roughly 10 µM; to `Nc1c(S(=O)(=O)O)cc(Nc2ccc(Cc3ccccc3)cc2)c2c1C(=O)c1ccccc1C2=O` [Entry 13], 0.614 µM.
Turning to `Nc1cccc(Nc2cc(S(=O)(=O)O)c(N)c3c2C(=O)c2ccccc2C3=O)c1` [Entry 14], the Ki in data set [1] (setting [2]) is greater than 10 µM.
`Nc1c(S(=O)(=O)O)cc(Nc2ccc(Sc3ccccc3)cc2)c2c1C(=O)c1ccccc1C2=O` [Entry 19]: the Ki in data set [1] (setting [2]) came out at 0.884 ± 0.525 µM.
On the same count and under the same terms, as for `Nc1c(S(=O)(=O)O)cc(Nc2ccc(Oc3ccccc3)c(S(=O)(=O)O)c2)c2c1C(=O)c1ccccc1C2=O` [Entry 22], the figure is 0.063 ± 0.009 µM; as for `Nc1c(S(=O)(=O)O)cc(Nc2ccc(Nc3ccccc3)c(S(=O)(=O)O)c2)c2c1C(=O)c1ccccc1C2=O` [Entry 24], 0.0249 ± 0.0032 µM.
The same measure, in the same setting: as for `Cc1cc(Nc2ccc(Nc3ccccc3)c(S(=O)(=O)O)c2)c2c(c1N)C(=O)c1ccccc1C2=O` [Entry 30], the figure is 0.541 µM.
As for `Nc1c(S(=O)(=O)O)cc(Nc2ccc(S(=O)(=O)O)c(Nc3nc(Cl)nc(Cl)n3)c2)c2c1C(=O)c1ccccc1C2=O` [Entry 31], the inhibitory constant (Ki) in data set [1] amounted to 17.1 ± 7.8 µM.
Take `Nc1c(S(=O)(=O)O)cc(Nc2ccc(Nc3nc(Cl)nc(Cl)n3)c(S(=O)(=O)O)c2)c2c1C(=O)c1ccccc1C2=O` [Entry 32]: in data set [1] (setting [2]), the Ki is 2.45 ± 1 µM.
Same read-out and setting: to `Nc1c(S(=O)(=O)O)cc(Nc2cc(Nc3nc(Cl)nc(Cl)n3)cc(C(=O)O)c2)c2c1C(=O)c1ccccc1C2=O` [Entry 34] belongs 3.76 ± 1.03 µM.
On to `Nc1c(S(=O)(=O)O)cc(Nc2ccc(Nc3nc(Cl)nc(Cl)n3)cc2)c2c1C(=O)c1ccccc1C2=O` [Entry 35], for which the Ki in data set [1] (setting [2]) came to 1.9 ± 0.24 µM.
The same measure, in the same setting: to `Nc1c(S(=O)(=O)O)cc(Nc2ccc(Nc3ncccn3)cc2)c2c1C(=O)c1ccccc1C2=O` [Entry 36] belongs roughly 10 µM.
Same read-out and setting: to `Nc1c(S(=O)(=O)O)cc(Nc2ccc(Nc3nc(O)nc(O)n3)c(S(=O)(=O)O)c2)c2c1C(=O)c1ccccc1C2=O` [Entry 38] belongs roughly 10 µM; to `Nc1c(S(=O)(=O)O)cc(Nc2ccc(Nc3nc(O)nc(O)n3)cc2S(=O)(=O)O)c2c1C(=O)c1ccccc1C2=O` [Entry 39], greater than 10 µM.
In turn, `Nc1c(S(=O)(=O)[O-])cc(Nc2cccc(C(=O)O)c2)c2c1C(=O)c1ccccc1C2=O.[Na+]` [Example 3, Sodium 1-amino-4-(3-carboxyphenylamino)-9,10-dioxo-9,10-dihydroanthracene 2-sulfonate] displayed a melting point greater than 300 °C.
Consider `Nc1c(S(=O)(=O)[O-])cc(Nc2ccc(C(=O)O)cc2)c2c1C(=O)c1ccccc1C2=O.[Na+]` [Example 4, Sodium 1-amino-4-(4-carboxyphenylamino)-9,10-dioxo-9,10-dihydroanthracene 2-sulfonate], for which the melting point was greater than 300 °C.
`Nc1ccccc1Nc1cc(S(=O)(=O)[O-])c(N)c2c1C(=O)c1ccccc1C2=O.[Na+]` [Example 5, Sodium 1-amino-4-(2-aminophenylamino)-9,10-dioxo-9,10-dihydroanthracene 2-sulfonate] came in with a melting point greater than 300 °C.
Still for that read-out and setting: to `Nc1c(S(=O)(=O)[O-])cc(Nc2ccc(CC(=O)O)cc2)c2c1C(=O)c1ccccc1C2=O.[Na+]` [Example 15, Sodium 1-amino-4-(4-carboxymethylphenylamino)-9,10-dioxo-9,10-dihydro-anthracene 2-sulfonate] belongs greater than 300 °C; to `COc1cccc(Nc2cc(S(=O)(=O)[O-])c(N)c3c2C(=O)c2ccccc2C3=O)c1.[Na+]` [Example 18, Sodium 1-amino-4-(3-methoxyphenylamino)-9,10-dioxo-9,10-dihydroanthracene 2-sulfonate], greater than 300 °C; to `COc1ccc(Nc2cc(S(=O)(=O)[O-])c(N)c3c2C(=O)c2ccccc2C3=O)cc1.[Na+]` [Example 19, Sodium 1-amino-4-(4-methoxyphenylamino)-9,10-dioxo-9,10-dihydroanthracene 2-sulfonate], greater than 300 °C.
`Nc1c(S(=O)(=O)[O-])cc(Nc2ccc(F)cc2)c2c1C(=O)c1ccccc1C2=O.[Na+]` [Example 20, Sodium 1-amino-4-(4-fluorophenylamino)-9,10-dioxo-9,10-dihydroanthracene 2-sulfonate] yielded a melting point greater than 300 °C.
Same read-out and setting: as for `Nc1c(S(=O)(=O)[O-])cc(Nc2cccc(Br)c2)c2c1C(=O)c1ccccc1C2=O.[Na+]` [Example 21, Sodium 1-amino-4-(3-bromophenylamino)-9,10-dioxo-9,10-dihydroanthracene 2-sulfonate], the figure is greater than 300 °C; as for `Cc1cc(C)cc(Nc2cc(S(=O)(=O)[O-])c(N)c3c2C(=O)c2ccccc2C3=O)c1.[Na+]` [Example 22, Sodium 1-amino-4-(3,5-dimethylphenylamino)-9,10-dioxo-9,10-dihydroanthracene 2-sulfonate], greater than 300 °C.
